Key:
22Rv1 Cell = assay: 22RV1 cell growth inhibition, CellTiter-Glo, 72 h; format: cell-based; conditions: 22RV1 cells, 72 h culture
In short: (§1)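 Cells seeded at 5×10^3/well overnight in RPMI-1640/10% FBS, then exposed to compound (0.5% DMSO final) for 72 h at 37 °C.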

vCap Cell = assay: vCap cell growth inhibition, CellTiter-Glo, 72 h; format: cell-based; conditions: vCap cells, 72 h culture
In short: as §1

CBP bromodomain = target: T1, CBP bromodomain (Homo sapiens, UniProt Q92793); assay: CBP AlphaLISA assay kit (CBP bromodomain binding to acetylated histone substrate); conditions: read-out: CBP ALPHA IC50
T1 construct: purchased
T1 sequence (Q92793 1085-1192 limits assumed): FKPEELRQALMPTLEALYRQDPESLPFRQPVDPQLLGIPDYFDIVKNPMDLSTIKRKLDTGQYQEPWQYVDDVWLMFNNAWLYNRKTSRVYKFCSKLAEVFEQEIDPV
Procedure: The biochemical activity of the CBP inhibitors was determined using the CBP AlphaLISA® assay kit. The assay is based on the binding of the CBP bromodomain to the acetylated histone substrate. The compounds were incubated with CBP and the biotinylated substrate for 30 min. Then acceptor beads were added, followed by 15 min of incubation, and donor beads were added, followed by 15 min of incubation. Then the alpha counts were read, the data were analyzed using Prism 7.0, and the IC50 values were calculated. The values are shown as mean f SEM (N=2).

Row | SMILES | IC50 (22Rv1 Cell; Homo sapiens, 22Rv1, 72 h) [nM] | IC50 (vCap Cell; Homo sapiens, VCaP, 72 h) [nM] | IC50 (CBP bromodomain) [nM] | IC50 (22Rv1 Cell) [nM] | IC50 (vCap Cell) [nM]
1 | COC1CCC(c2cc3c(c(N4CCCc5cc(-c6cnn(C)c6)c(C(F)F)cc54)c2)CN(C(C)=O)C3)CC1 (centres unmarked) [Compound M001065] | < 1000 | < 1000 | < 10 | – | –
2 | CNC(=O)N1CCc2cc(C3CCN(C(=O)c4ccccc4)CC3)cc(N3CCCc4cc(-c5cnn(C)c5)c(C(F)F)cc43)c2C1 [Compound M001076] | > 1000 | < 1000 | < 10 | – | –
3 | CC(=O)N1Cc2cc(C3CCNC(=O)C3)cc(N3CCCc4cc(-c5cnn(C)c5)c(C(F)F)cc43)c2C1 (centres unmarked) [Compound M001126] | < 1000 | < 1000 | > 10 | – | –
4 | CC(=O)N1Cc2cc(C3CCC(=O)N(C)C3)cc(N3CCCc4cc(-c5cnn(C)c5)c(C(F)F)cc43)c2C1 (centres unmarked) [Compound M001173] | < 1000 | < 1000 | < 10 | – | –
5 | CC(=O)N1Cc2cc(C3CNC(=O)OC3)cc(N3CCCc4cc(-c5cnn(C)c5)c(C(F)F)cc43)c2C1 (centres unmarked) [Compound M001246] | > 1000 | > 1000 | – | – | –
6 | CC(=O)N1Cc2cc(C3CCN(CC(C)O)C(=O)C3)cc(N3CCCc4cc(-c5cnn(C)c5)c(C(F)F)cc43)c2C1 (centres unmarked) [Compound M001249] | – | – | – | < 1000 | < 1000
7 | CC(=O)N1Cc2cc(C3CCN(CC(F)(F)F)C(=O)C3)cc(N3CCCc4cc(-c5cnn(C)c5)c(C(F)F)cc43)c2C1 (centres unmarked) [Compound M001252] | < 1000 | < 1000 | – | – | –
8 | CNC(=O)N1CCc2cc(C3CCN(CC(F)(F)F)C(=O)C3)cc(N3CCCc4cc(-c5cnn(C)c5)c(C(F)F)cc43)c2C1 (centres unmarked) [Compound M001253] | < 1000 | < 1000 | – | – | –
9 | CCN1CCC(c2cc3c(c(N4CCCc5cc(-c6cnn(C)c6)c(C(F)F)cc54)c2)CN(C(=O)OC)CCC3)CC1=O (centres unmarked) [Compound M001260, methyl 9-(7-(difluoromethyl)-6-(1-methyl-1H-pyrazol-4-yl)-3,4-dihydroquinolin-1(2H)-yl)-7-(1-ethyl-2-oxopiperidin-4-yl)-1,3,4,5-tetrahydro-2H-benzo[c]azepine-2-carboxylate] | > 1000 | > 1000 | – | – | –
10 | CCN1CCC(c2cc3c(c(N4CCCc5cc(-c6cnn(C)c6)c(C(F)F)cc54)c2)CN(C(N)=O)CCC3)CC1=O (centres unmarked) [Compound M001261] | > 1000 | > 1000 | – | – | –
11 | CCN1CCC(c2cc3c(c(N4CCCc5cc(-c6cnn(C)c6)c(C(F)F)cc54)c2)CN(C(=O)NC)CCC3)CC1=O (centres unmarked) [Compound M001263] | > 1000 | > 1000 | – | – | –
12 | CCN1CCC(c2cc3c(c(N4CCCc5cc(-c6cnn(C)c6)c(C(F)F)cc54)c2)CN(C(C)=O)CCC3)CC1=O (centres unmarked) [Compound M001264] | > 1000 | > 1000 | – | – | –
13 | CNC(=O)N1CCc2cc(C3CCN(OC)CC3)cc(N3CCCc4cc(-c5cnn(C)c5)c(C(F)F)cc43)c2C1 [Compound M001268] | > 1000 | < 1000 | – | – | –
14 | CON1CCC(c2cc3c(c(N4CCCc5cc(-c6cnn(C)c6)c(C(F)F)cc54)c2)CN(C(C)=O)C3)CC1 [Compound M001269] | > 1000 | > 1000 | – | – | –
15 | COC(=O)N1CCc2cc(C3CCC(=O)N(CC(C)(C)O)C3)cc(N3CCCc4cc(-c5cnn(C)c5)c(C(F)F)cc43)c2C1 (centres unmarked) [Compound M001272] | > 1000 | > 1000 | – | – | –
16 | CON1CCC(c2cc3c(c(N4CCCc5cc(-c6cnn(C)c6)c(C(F)F)cc54)c2)CN(C(=O)OC(C)(C)C)CC3)CC1 [Compound M001274, tert-butyl 8-[7-(difluoromethyl)-6-(1-methylpyrazol-4-yl)-3,4-dihydro-2H-quinolin-1-yl]-6-(1-methoxypiperidin-4-yl)-3,4-dihydro-1H-isoquinoline-2-carboxylate] | > 1000 | > 1000 | – | – | –
17 | CON1CCC(c2cc3c(c(N4CCCc5cc(-c6cnn(C)c6)c(C(F)F)cc54)c2)CN(C(=O)OC(C)(C)C)C3)CC1 [Compound M001275] | > 1000 | > 1000 | – | – | –
18 | CNC(=O)N1CCc2cc(C3CCN(CC(C)(C)O)C(=O)C3)cc(N3CCCc4cc(-c5cnn(C)c5)c(C(F)F)cc43)c2C1 (centres unmarked) [Compound M001280] | < 1000 | > 1000 | – | – | –
19 | CC(=O)N1Cc2cc(C3CCN(C4CCC(=O)NC4=O)C(=O)C3)cc(N3CCCc4cc(-c5cnn(C)c5)c(C(F)F)cc43)c2C1 (centres unmarked) [Compound M001288] | > 1000 | > 1000 | – | – | –

Row | SMILES | IC50 (22Rv1 Cell; Homo sapiens, 22Rv1, 72 h) [nM] | IC50 (vCap Cell; Homo sapiens, VCaP, 72 h) [nM] | IC50 (CBP bromodomain) [nM] | IC50 (22Rv1 Cell) [nM] | IC50 (vCap Cell) [nM]
20 | CC(=O)N1Cc2cc(C3CCN(S(C)(=O)=O)CC3)cc(N3CCCc4cc(-c5cnn(C)c5)c(C(F)F)cc43)c2C1 [Compound M001296] | < 1000 | < 1000 | – | – | –
21 | CC(=O)N1Cc2cc(C3CCC(S(C)(=N)=O)CC3)cc(N3CCCc4cc(-c5cnn(C)c5)c(C(F)F)cc43)c2C1 (centres unmarked) [Compound M001297, (4-(2-acetyl-7-(7-(difluoromethyl)-6-(1-methyl-1H-pyrazol-4-yl)-3,4-dihydroquinolin-1(2H)-yl)isoindol-5-yl)cyclohexyl)(imino)(methyl)-16-sulfanone] | < 1000 | < 1000 | – | – | –
22 | CC(=O)N1Cc2cc(C3CCN(S(=O)(=O)C4CC4)CC3)cc(N3CCCc4cc(-c5cnn(C)c5)c(C(F)F)cc43)c2C1 [Compound M001298] | < 1000 | < 1000 | – | – | –
23 | CC(=O)N1Cc2cc([C@H]3CC[C@@H](S(C)(=O)=O)CC3)cc(N3CCCc4cc(-c5cnn(C)c5)c(C(F)F)cc43)c2C1 [Compound M001299] | < 1000 | < 1000 | – | – | –
24 | CC(=O)N1Cc2cc(C3CCC(N)CC3)cc(N3CCCc4cc(-c5cnn(C)c5)c(C(F)F)cc43)c2C1 (centres unmarked) [Compound M001301, 1-(6-(4-aminocyclohexyl)-4-(7-(difluoromethyl)-6-(1-methyl-1H-pyrazol-4-yl)-3,4-dihydroquinolin-1(2H)-yl)isoindolin-2-yl)ethan-1-one] | > 1000 | > 1000 | – | – | –
25 | CC(=O)N[C@H]1CC[C@H](c2cc3c(c(N4CCCc5cc(-c6cnn(C)c6)c(C(F)F)cc54)c2)CN(C(C)=O)C3)CC1 [Compound M001304] | < 1000 | < 1000 | – | – | –
26 | CNC(=O)N1CCc2cc(C3CCN(S(=O)(=O)C4CC4)CC3)cc(N3CCCc4cc(-c5cnn(C)c5)c(C(F)F)cc43)c2C1 [Compound M001307] | < 1000 | < 1000 | – | – | –
27 | CNC(=O)N1CCc2cc([C@H]3CC[C@@H](NS(C)(=O)=O)CC3)cc(N3CCCc4cc(-c5cnn(C)c5)c(C(F)F)cc43)c2C1 [Compound M001313] | > 1000 | < 1000 | – | – | –
28 | CSC1CCC(c2cc3c(c(N4CCCc5cc(-c6cnn(C)c6)c(C(F)F)cc54)c2)CN(C(C)=O)C3)CC1 (centres unmarked) [Compound M001315] | > 1000 | < 1000 | – | – | –
29 | CC(=O)N1Cc2cc(C3CCC(N)CC3)cc(N3CCCc4cc(-c5cnn(C)c5)c(C(F)F)cc43)c2C1 (centres unmarked) [Compound M001320] | – | – | – | > 1000 | > 1000
30 | CC(=O)N1Cc2cc([C@H]3CC[C@@H](N)CC3)cc(N3CCCc4cc(-c5cnn(C)c5)c(C(F)F)cc43)c2C1 [Compound M001321] | > 1000 | > 1000 | – | – | –
31 | CS[C@H]1CC[C@@H](c2cc3c(c(N4CCCc5cc(-c6cnn(C)c6)c(C(F)F)cc54)c2)CN(C(C)=O)C3)CC1 [Compound M001322] | > 1000 | > 1000 | – | – | –
32 | CC(=O)N1Cc2cc(C3CCC([S+](C)[O-])CC3)cc(N3CCCc4cc(-c5cnn(C)c5)c(C(F)F)cc43)c2C1 (centres unmarked) [Compound M001323] | > 1000 | < 1000 | – | – | –
33 | CSC1CCC(c2cc3c(c(N4CCCc5cc(-c6cnn(C)c6)c(C(F)F)cc54)c2)CN(C(C)=O)C3)CC1 (centres unmarked) [Compound M001324] | – | – | – | > 1000 | < 1000
34 | CC(=O)N1Cc2cc(C3CCC(S(C)(=N)=O)CC3)cc(N3CCCc4cc(-c5cnn(C)c5)c(C(F)F)cc43)c2C1 (centres unmarked) [Compound M001327] | – | – | – | > 1000 | > 1000
35 | CC(=O)N1Cc2cc(C3CCC([S@@](C)(=N)=O)CC3)cc(N3CCCc4cc(-c5cnn(C)c5)c(C(F)F)cc43)c2C1 (some centres unmarked) [Compound M001328] | > 1000 | > 1000 | – | – | –
36 | CC(=O)N1Cc2cc(C3CCC([S@@](C)(=N)=O)CC3)cc(N3CCCc4cc(-c5cnn(C)c5)c(C(F)F)cc43)c2C1 (some centres unmarked) [Compound M001329] | – | – | – | > 1000 | > 1000
37 | CON[C@H]1CC[C@@H](c2cc3c(c(N4CCCc5cc(-c6cnn(C)c6)c(C(F)F)cc54)c2)CN(C(C)=O)C3)CC1 [Compound M001340] | > 1000 | > 1000 | – | – | –
38 | CON[C@H]1CC[C@H](c2cc3c(c(N4CCCc5cc(-c6cnn(C)c6)c(C(F)F)cc54)c2)CN(C(C)=O)C3)CC1 [Compound M001341] | > 1000 | > 1000 | – | – | –

— patent US20240109868A1, “EP300/CBP MODULATOR, PREPARATION METHOD THEREFOR AND USE THEREOF” (Miracure Biotechnology Limited, priority 2022, published 2024)
